Consider 1 compound from US20260256792A1, “TREATMENT OF CHRONIC SPONTANEOUS URTICARIA BY ADMINISTERING (R)-2-[3-[4-AMINO-3-(2-FLUORO-4-PHENOXY-PHENYL)PYRAZOLO[3,4-D]PYRIMIDIN-1-YL]PIPERIDINE-1-CARBONYL]-4-METHYL-4-[4-(OXETAN-3-YL)PIPERAZIN-1-YL]PENT-2-ENENITRILE” (priority 2023, published 2026).

In data set [1] the test system is IL-31. Briefly: Phase 2 CSU study: serum IL-31 HTRF assay. The data set is classed as in vivo, human. The conditions noted are these: for IL-31 (ng/mL) Median Percent Change from Baseline: Baseline to Week 12. The source says: Blood samples were also collected through Week 12 to evaluate the change in baseline in various biomarkers, including sMRGPRX2, IgG anti-TPO, IgG anti-FCεRI, IgG anti-IgE, and IL-31.
Collection of biological samples for other biomarker research was also part of this study. The following samples for biomarker research were required and were to be collected from all participants in this study: • Serum and plasma samples for soluble biomarkers and cellular tests. Analytes included IgG anti-IgE, IgG anti-FcεRI, IgG anti-TPO, IgE anti-TPO, IL-31, and sMRGPRX2. • Blood samples for immune cell phenotyping, including measurement of eosinophil levels • Blood samples for BTK occupancy in peripheral blood mononuclear cells (PBMCs) at selected sites
For each patient, serum samples were to be collected on each of four visits (Visits 2, 4, 6, and end of study/follow up).
Serum analyte testing was to be performed using the following commercial assays: • sMRGPRX2 ELISA (Cat. No. #MBS933336; MyBioSource) • IL-31 HTRF assay (Cat. No. #62HIL31PEG; Cisbio/PerkinElmer) • IgG anti-TPO ELISA (Cat. No. #ORG503; Orgentec Diagnostica GmbH)
If dilutions were to be prepared, the same dilutions were to be prepared twice from each sample. These were to be measured on different plates. Each plate was to include a standard curve. Samples were to be measured twice for all biomarkers except for sMRGPRX2. Mean measurement values were to be calculated, and the concentration of the biomarker was to be calculated using GraphPad Prism 9 software (4-PL model).
The IL-31 HTRF assay was performed according to the manufacturer's instructions.
Assay data ranges are described below. • sMRGPRX2: 0.1 ng/mL-10 ng/mL • IgG anti-FCεRI: 0-10000 arbitrary units (AU) • IgG anti-TPO: 0-3000 international units (IU) • IgE anti-TPO: 0-500 AU • IgG anti-IgE: 0-100000 AU • IL-31: 0.1 ng/mL-20 ng/mL
A general note: In TR-FRET formats the signal depends on donor and acceptor labels being close together.

The subject of data set [2] is platelet aggregation. The conditions noted are these: healthy volunteers or patients with ITP; cited from earlier work.
Data set [3] has as its system mouse model of immune thrombocytopenia. The conditions noted are these: mouse ITP model; cited from earlier work.
The test system of data set [4] is total serum IgE or IgG. Briefly: Phase 2 CSU study: total serum immunoglobulins (IgE, IgG, IgM). The settings on record: for Total IgE (IU/mL) Median Percent Change from Baseline / Total IgG (g/L) Median Percent Change from Baseline: Baseline to Week 12.
Description: Changes in disease-relevant biomarkers were assessed over the course of the 12-Week double-blind phase (see FIG. 40). Biomarkers included sMRGPRX2, IgE anti-TPO, IgG anti-FCεRI, IL-31, IgM, IgE, IgG, IgG anti-IgE, and white blood cell levels.

Consider `CC(C)(C=C(C#N)C(=O)N1CCC[C@@H](n2nc(-c3ccc(Oc4ccccc4)cc3F)c3c(N)ncnc32)C1)N1CCN(C2COC2)CC1` [rilzabrutinib, (R)-2-[3-[4-amino-3-(2-fluoro-4-phenoxy-phenyl)pyrazolo[3,4-d]pyrimidin-1-yl]piperidine-1-carbonyl]-4-methyl-4-[4-(oxetan-3-yl)piperazin-1-yl]pent-2-enenitrile], for which the “reduction from baseline median IL-31 levels” value in data set [1] (400 mg TID, Week 12) is 8.1%. Besides, the figures for the “IL-31 (ng/mL) Median Percent Change from Baseline” value in data set [1] (400 mg BID), in data set [1] (400 mg QPM) and in data set [1] (400 mg TID) were −6.8%, −11.6% and −8.1%, respectively. Also, the “effect on platelet aggregation” value in data set [2] is listed as “does not alter”. Moreover, in data set [3], the platelet loss result is “reduction”. Moreover, the “change in total serum IgE or IgG levels” value in data set [4] (12-week double-blind phase) is reported as “not associated with a change”. Besides, the “Total IgE (IU/mL) Median Percent Change from Baseline” value in data set [4] (400 mg BID) was determined as 3.9%; in data set [4] (400 mg QPM), 3.4%; in data set [4] (400 mg TID), 4.1%. The “Total IgG (g/L) Median Percent Change from Baseline” value in data set [4] (400 mg BID) was 0.96%; in data set [4] (400 mg QPM), −1.99%; in data set [4] (400 mg TID) it was 0.24%.
